Measurements published in ChEMBL document CHEMBL5584324, “Exploiting spirooxindoles for dual DNA targeting/CDK2 inhibition and simultaneous mitigation of oxidative stress towards selective NSCLC therapy; synthesis, evaluation, and molecular modelling studies” (RSC Med Chem, 2024).
Active and inactive are the calls of the source. The calls are words filed in the database; no cut-off is given here.

What was measured:
[1] = test system: WI-38; test: Cytotoxicity against human WI-38 cells by measuring effective concentration incubated for 72 hrs by MTT assay; type: toxicity, cell-based; conditions: wi-38, 72 h
[2] = Cytotoxicity against human WI-38 cells incubated for 72 hrs by MTT assay; type: toxicity, cell-based
[3] = test system: NCI-H460; test: Cytotoxicity against human NCI-H460 cells incubated for 72 hrs by MTT assay; conditions: NCI-H460, 72 h
[4] = Selectivity index, ratio of IC50 for cytotoxicity against human WI-38 cells to IC50 for cytotoxicity against human A549 cells; type: toxicity, cell-based; conditions: WI-38 cells versus A549 cells, read-out: Ratio IC50
[5] = Selectivity index, ratio of IC50 for cytotoxicity against human WI-38 cells to IC50 for cytotoxicity against human NCI-H460 cells; type: toxicity, cell-based; conditions: WI-38 cells versus NCI-H460 cells, read-out: Ratio IC50
[6] = test system: A549; test: cells; conditions: Homo sapiens, A549, 72 h
Description: Cytotoxicity against human A549 cells incubated for 72 hrs by MTT assay

[7] = test system: A549; test: Cytotoxicity against human A549 cells assessed as morphological damage incubated for 72 hrs by inverted phase contrast microscopic analysis; type: functional, cell-based
[8] = test system: Calf thymus DNA; test: Binding affinity to calf thymus DNA assessed as disruption of DNA by measuring increase in TB3+ fluorescence at 5 uM incubated for 24 hrs followed by biosensor TbCl3 addition by fluorescence spectrophotometric analysis; type: tissue-based; conditions: Bos taurus
[9] = test system: Calf thymus DNA; test: Binding affinity to calf thymus DNA assessed as disruption of DNA by measuring increase in TB3+ fluorescence upto 4 uM incubated for 24 hrs followed by biosensor TbCl3 addition by fluorescence spectrophotometric analysis; type: tissue-based; conditions: Bos taurus
[10] = test system: Calf thymus DNA; test: Binding affinity to calf thymus DNA assessed as disruption of DNA by measuring increase in TB3+ fluorescence at 24.6 nM incubated for 24 hrs followed by biosensor TbCl3 addition by fluorescence spectrophotometric analysis; type: tissue-based; conditions: Bos taurus
[11] = test system: A549; test: Induction of apoptosis in human A549 cells assessed as early apoptotic cells at 0.089 uM incubated for 48 hrs by annexin V-FITC/PI staining based flow cytometry (reference value: 0.37 %); type: functional
[12] = test system: A549; test: Induction of apoptosis in human A549 cells assessed as late apoptotic cells at 0.089 uM incubated for 48 hrs by annexin V-FITC/PI staining based flow cytometry (reference value: 0.28 %); type: functional
[13] = test system: A549; test: Induction of apoptosis in human A549 cells assessed as necrotic cells at 0.089 uM incubated for 48 hrs by annexin V-FITC/PI staining based flow cytometry (reference value: 1.21 %); type: functional
[14] = test system: A549; test: Induction of cell cycle arrest in human A549 cells assessed as accumulation of cells at G1 phase at 0.089 uM incubated for 48 hrs by propidium iodide staining based immunocytometric analysis (reference value: 44.75 %); type: functional
[15] = test system: A549; test: Induction of cell cycle arrest in human A549 cells assessed as accumulation of cells at G2/M phase at 0.089 uM incubated for 48 hrs by propidium iodide staining based immunocytometric analysis (reference value: 18.31 %); type: functional
[16] = test system: A549; test: Induction of cell cycle arrest in human A549 cells assessed as accumulation of cells at S phase at 0.089 uM incubated for 48 hrs by propidium iodide staining based immunocytometric analysis (reference value: 36.94 %); type: functional
[17] = test system: A549; test: Induction of cell cycle arrest in human A549 cells assessed as accumulation of aggregates at 0.089 uM incubated for 48 hrs by propidium iodide staining based immunocytometric analysis (reference value: 1.81 %); type: functional
[18] = test system: A549; test: Induction of cell cycle arrest in human A549 cells assessed as accumulation of cell debris at 0.089 uM incubated for 48 hrs by propidium iodide staining based immunocytometric analysis (reference value: 2.25 %); type: functional
[19] = Antioxidant activity assessed as DPPH radical scavenging activity incubated for 30 mins by absorbance based assay; type: functional
[20] = Antioxidant activity assessed as DPPH radical scavenging activity at 10 uM incubated for 30 mins by absorbance based assay relative to trolox; type: functional
[21] = Antioxidant activity assessed as DPPH radical scavenging activity at 100 uM incubated for 30 mins by absorbance based assay (reference value: […] %); type: functional
[22] = test system: Calf thymus DNA; test: Binding affinity to calf thymus DNA assessed as disruption of DNA by measuring increase in TB3+ fluorescence at 35.3 nM incubated for 24 hrs followed by biosensor TbCl3 addition by fluorescence spectrophotometric analysis; type: tissue-based; conditions: Bos taurus

| SMILES | IC50 [6] [nM] | EC100 [1] [µM] | IC50 at 72 h [2] [nM] | IC50 [3] [nM] | selectivity ratio [4] | selectivity ratio [5] | further results |
| --- | --- | --- | --- | --- | --- | --- | --- |
| O=C(c1ccc([N+](=O)[O-])cc1)[C@H]1[C@H](c2cn(-c3ccccc3)nc2-c2ccccc2)[C@@H]2CC3CCCCC3N2[C@]12C(=O)Nc1ccc(Cl)cc12 (some centres undefined) | 89 | 0.249 | 480 | 2460 |  |  | Activity [7]: Active; Activity [8]: Active; Activity [9]: Active; Activity [10]: Active; Activity [11]: 25.72%; Activity [12]: 15.13%; Activity [13]: 7.46%; Activity [14]: 38.56%; Activity [15]: 28.16%; Activity [16]: 33.28%; Activity [17]: 1.96%; Activity [18]: 2.03%; Activity [19]: Dose-Dependent Effect; Activity [20]: 60%; Activity [21]: 88.4% |
| COc1cccc2c1C(=O)c1c(O)c3c(c(O)c1C2=O)C[C@@](O)(C(=O)CO)C[C@@H]3O[C@H]1C[C@H](N)[C@H](O)[C@H](C)O1 [DOXORUBICIN] |  | 0.033 | 129 |  |  |  | Activity [8]: Active |
| O=C(c1ccc(Br)cc1)[C@H]1[C@H](c2cn(-c3ccccc3)nc2-c2ccccc2)[C@@H]2CC3CCCCC3N2[C@]12C(=O)Nc1ccccc12 (some centres undefined) | 158 | 0.271 | 466 | 725 | 2.95 | 0.64 |  |
| O=C(c1ccccc1[N+](=O)[O-])[C@H]1[C@H](c2cn(-c3ccccc3)nc2-c2ccccc2)[C@@H]2CC3CCCCC3N2[C@]12C(=O)Nc1ccccc12 (some centres undefined) | 170 | 0.224 | 413 | 613 | 2.43 | 0.67 |  |
| COc1ccc2c(c1)[C@@]1(C(=O)N2)[C@@H](C(=O)c2ccc([N+](=O)[O-])cc2)[C@H](c2cn(-c3ccccc3)nc2-c2ccccc2)CN1C | 235 | 0.539 | 1490 | 1140 | 6.34 | 1.3 |  |
| COc1ccc2c(c1)[C@@]1(C(=O)N2)[C@@H](C(=O)c2ccc([N+](=O)[O-])cc2)[C@H](c2cn(-c3ccccc3)nc2-c2ccccc2)[C@@H]2CC3CCCCC3N21 (some centres undefined) | 212 | 0.366 | 773 | 895 | 3.65 | 0.86 |  |
| O=C(c1ccccc1)[C@H]1[C@H](c2cn(-c3ccccc3)nc2-c2ccccc2)[C@@H]2CC3CCCCC3N2[C@]12C(=O)Nc1ccc(Cl)cc12 (some centres undefined) | 231 | 0.28 | 467 | 529 | 2.02 | 0.88 |  |

More lines, in order of falling IC50 [6], values ahead:

| IC50 [6] [nM] | SMILES | EC100 [1] [µM] | IC50 at 72 h [2] [nM] | IC50 [3] [nM] | selectivity ratio [4] | selectivity ratio [5] | further results |
| --- | --- | --- | --- | --- | --- | --- | --- |
| 344 | CN1C[C@@H](c2cn(-c3ccccc3)nc2-c2ccccc2)[C@H](C(=O)c2ccccc2)[C@@]12C(=O)Nc1ccccc12 | 0.59 | 1300 | 761 | 3.79 | 1.71 |  |
| 307 | O=C(c1ccccc1)[C@H]1[C@H](c2cn(-c3ccccc3)nc2-c2ccccc2)[C@@H]2CC3CCCCC3N2[C@]12C(=O)Nc1ccccc12 (some centres undefined) | 0.451 | 825 | 537 | 2.69 | 1.53 |  |
| 283 | CN1C[C@@H](c2cn(-c3ccccc3)nc2-c2ccccc2)[C@H](C(=O)c2ccccc2)[C@@]12C(=O)Nc1ccc(Cl)cc12 | 0.308 | 545 | 417 | 1.93 | 1.3 |  |
| 223 | CN1C[C@@H](c2cn(-c3ccccc3)nc2-c2ccccc2)[C@H](C(=O)c2ccc([N+](=O)[O-])cc2)[C@@]12C(=O)Nc1ccccc12 | 0.375 | 741 | 748 | 3.32 | 0.99 |  |
| 205 | O=C(c1ccc([N+](=O)[O-])cc1)[C@H]1[C@H](c2cn(-c3ccccc3)nc2-c2ccccc2)[C@@H]2CC3CCCCC3N2[C@]12C(=O)Nc1ccccc12 (some centres undefined) | 0.41 | 712 | 909 | 3.47 | 0.78 |  |
| 205 | O=C(c1ccc(Br)cc1)[C@H]1[C@H](c2cn(-c3ccccc3)nc2-c2ccccc2)[C@@H]2CC3CCCCC3N2[C@]12C(=O)Nc1cc(Cl)ccc12 (some centres undefined) | 0.594 | 1040 | 1420 | 5.05 | 0.73 |  |
| 192 | O=C(c1ccccc1)[C@H]1[C@H](c2cn(-c3ccccc3)nc2-c2ccccc2)[C@@H]2CC3CCCCC3N2[C@]12C(=O)Nc1cc(Cl)ccc12 (some centres undefined) | 0.267 | 509 | 964 | 2.65 | 0.53 |  |
| 131 | CN1C[C@@H](c2cn(-c3ccccc3)nc2-c2ccccc2)[C@H](C(=O)c2ccc([N+](=O)[O-])cc2)[C@@]12C(=O)Nc1ccc(Cl)cc12 | 0.287 | 480 | 1030 | 3.66 | 0.46 |  |
| 130 | O=C(c1ccccc1[N+](=O)[O-])[C@H]1[C@H](c2cn(-c3ccccc3)nc2-c2ccccc2)[C@@H]2CC3CCCCC3N2[C@]12C(=O)Nc1cc(Cl)ccc12 (some centres undefined) | 0.142 | 435 | 911 | 3.35 | 0.48 |  |
| 96 | O=C(c1ccccc1[N+](=O)[O-])[C@H]1[C@H](c2cn(-c3ccccc3)nc2-c2ccccc2)[C@@H]2CC3CCCCC3N2[C@]12C(=O)Nc1ccc(Cl)cc12 (some centres undefined) | 0.094 | 294 | 1340 |  |  | Activity [7]: Active; Activity [8]: Active; Activity [9]: Active; Activity [22]: Active |
